# The source made the active and inactive calls. The rule behind the calls is not given here.
# Columns and labels:
# A549 = test: Antiproliferative activity against human A549 cells measured after 24 hrs by MTT assay; assay type: functional, cell-based; settings: A549, 24 h
# HeLa [1] = test: Cell cycle arrest in human HeLa cells assessed as accumulation at G2/M phase after 24 hrs by propidium iodide staining based flow cytometry; assay type: functional
# HeLa [2] = test: Cell cycle arrest in human HeLa cells assessed as accumulation at G1 phase at 0.1 uM after 24 hrs by propidium iodide staining based flow cytometry (reference value: 85.81%); assay type: functional
# HeLa [3] = test: Cell cycle arrest in human HeLa cells assessed as accumulation at S phase at 0.2 uM after 12 hrs by propidium iodide staining based flow cytometry (reference value: 49.41%); assay type: functional
# HeLa [4] = test: Cell cycle arrest in human HeLa cells assessed as accumulation at G2/M phase at 0.2 uM after 12 hrs by propidium iodide staining based flow cytometry (reference value: 2.15%); assay type: functional
# HeLa [5] = test: Cell cycle arrest in human HeLa cells assessed as accumulation at S phase at 0.4 uM after 12 hrs by propidium iodide staining based flow cytometry (reference value: 49.41%); assay type: functional
# HeLa [6] = test: Cell cycle arrest in human HeLa cells assessed as accumulation at G2/M phase at 0.4 uM after 12 hrs by propidium iodide staining based flow cytometry (reference value: 2.15%); assay type: functional
# HeLa [7] = test: Cell cycle arrest in human HeLa cells assessed as accumulation at S phase at 0.8 uM after 12 hrs by propidium iodide staining based flow cytometry (reference value: 49.41%); assay type: functional
# HeLa [8] = test: Cell cycle arrest in human HeLa cells assessed as accumulation at G2/M phase at 0.8 uM after 12 hrs by propidium iodide staining based flow cytometry (reference value: 2.15%); assay type: functional
# HeLa [9] = test: Cell cycle arrest in human HeLa cells assessed as accumulation at G1 phase at 0.5 uM after 12 hrs by propidium iodide staining based flow cytometry (reference value: 79.19%); assay type: functional
# HeLa [10] = test: Cell cycle arrest in human HeLa cells assessed as accumulation at S phase at 0.5 uM after 12 hrs by propidium iodide staining based flow cytometry (reference value: 33.78%); assay type: functional
# HeLa [11] = test: Cell cycle arrest in human HeLa cells assessed as accumulation at G1 phase at 0.5 uM after 36 hrs by propidium iodide staining based flow cytometry (reference value: 79.19%); assay type: functional
# HeLa [12] = test: Cell cycle arrest in human HeLa cells assessed as accumulation at S phase at 0.5 uM after 36 hrs by propidium iodide staining based flow cytometry (reference value: 33.78%); assay type: functional
# HeLa [13] = test: Induction of apoptosis in human HeLa cells after 24 hrs by Annexin-V-FITC/propidium iodide staining based flow cytometry; assay type: functional, cell-based
# HeLa [14] = test: Induction of apoptosis in human HeLa cells at 0.5 uM by Annexin-V-FITC/propidium iodide staining based flow cytometry; assay type: functional, cell-based; settings: TDE = time-dependent effect
# HeLa [15] = test: Induction of apoptosis in human HeLa cells assessed as late apoptotic cells at 0.1 uM after 24 hrs by Annexin-V-FITC/propidium iodide staining based flow cytometry (reference value: 3.1%); assay type: functional
# HeLa [16] = test: Induction of apoptosis in human HeLa cells assessed as viable cells at 0.2 uM after 24 hrs by Annexin-V-FITC/propidium iodide staining based flow cytometry (reference value: 94.4%); assay type: functional; settings: read-out: Activity
# HeLa [17] = test: Induction of apoptosis in human HeLa cells assessed as late apoptotic cells at 0.2 uM after 24 hrs by Annexin-V-FITC/propidium iodide staining based flow cytometry (reference value: 3.1%); assay type: functional
# HeLa [18] = test: Induction of apoptosis in human HeLa cells assessed as viable cells at 0.4 uM after 24 hrs by Annexin-V-FITC/propidium iodide staining based flow cytometry (reference value: 94.4%); assay type: functional; settings: read-out: Activity
# HeLa [19] = test: Induction of apoptosis in human HeLa cells assessed as late apoptotic cells at 0.8 uM after 24 hrs by Annexin-V-FITC/propidium iodide staining based flow cytometry (reference value: 3.1%); assay type: functional
# HeLa [20] = test: Induction of apoptosis in human HeLa cells assessed as viable cells at 0.5 uM after 24 hrs by Annexin-V-FITC/propidium iodide staining based flow cytometry (reference value: 91%); assay type: functional; settings: read-out: Activity
# HeLa [21] = test: Induction of apoptosis in human HeLa cells assessed as viable cells at 0.5 uM after 36 hrs by Annexin-V-FITC/propidium iodide staining based flow cytometry (reference value: 91%); assay type: functional; settings: read-out: Activity
# HeLa [22] = test: Induction of apoptosis in human HeLa cells assessed as early apoptotic cells at 0.5 uM after 36 hrs by Annexin-V-FITC/propidium iodide staining based flow cytometry (reference value: 6.02%); assay type: functional
# HeLa [23] = test: Induction of apoptosis in human HeLa cells assessed as necrotic cells at 0.5 uM after 36 hrs by Annexin-V-FITC/propidium iodide staining based flow cytometry (reference value: 0.35%); assay type: functional
# HeLa [24] = test: Inhibition of microtubule polymerization in human HeLa cells assessed as appearance of short and curled microtubule fragments at 0.4 uM after 24 hrs by DAPI staining based confocal microscopic analysis; assay type: cell-based
# HeLa [25] = test: Inhibition of microtubule polymerization in human HeLa cells assessed as effect on microtubule organization at 0.2 uM after 24 hrs by DAPI staining based confocal microscopic analysis; assay type: cell-based
smiles,measurement,setting,value
CCn1cc(C(=O)N2CCN(S(=O)(=O)c3c(C(C)C)cc(C(C)C)cc3C(C)C)CC2)c2ccccc21,IC50,A549,590 nM
same,Activity,HeLa [1],Dose-dependent effect
same,Activity,HeLa [2],54.97%
same,Activity,HeLa [3],61.18%
same,Activity,HeLa [4],20.46%
same,Activity,HeLa [5],40.08%
same,Activity,HeLa [6],51.71%
same,Activity,HeLa [7],53.83%
same,Activity,HeLa [8],83.61%
same,Activity,HeLa [9],42.86%
same,Activity,HeLa [10],51.97%
same,Activity,HeLa [11],1.19%
same,Activity,HeLa [12],53.25%
same,Activity,HeLa [13],Dose-dependent effect
same,Activity,HeLa [14],Tde
same,Activity,HeLa [15],5.71%
same,viability at 0.2 µM,HeLa [16],71%
same,Activity,HeLa [17],7.24%
same,viability at 0.4 µM,HeLa [18],63.6%
same,Activity,HeLa [19],22.4%
same,viability at 0.5 µM,HeLa [20],72.7%
same,viability at 0.5 µM,HeLa [21],53.1%
same,Activity,HeLa [22],25.3%
same,Activity,HeLa [23],0.329%
same,inhibition,HeLa [24],Active
same,inhibition,HeLa [25],Active

# — ChEMBL document CHEMBL3992485 (Medchemcomm, 2016)
